Results: US8912315B2, “Purkinje cell-tropic viral vector” (Japan Science and Technology Agency, priority 2006, dated 2014)

Tested on: HeLa cells
Format: cell-based
Settings: viruses generated in HEK293T cells with the named serum or protease inhibitor, Table 3; TU/ml

| Molecule | Titer × 10^9 |
| --- | --- |
| COc1ccc(S(=O)(=O)N(Cc2cccnc2)[C@@H](C(=O)NO)C(C)C)cc1 [CGS 27023A] | 3.4 ± 1.4 × 10^9 |
| TIMP-1: metallo proteinase inhibitor added to medium during virus generation | 6.3 × 10^9 |
